Data as given in patent publication US20200231545A1, “CHARGED ION CHANNEL BLOCKERS AND METHODS FOR USE THEREOF” (President and Fellows of Harvard College, priority 2019, published 2020).
“And” between values parts separate entries of the source, which are not always exact repeats. Equal entries are not always repeated.

Experiments:
[1] = system: endogenous Nav currents in TRPV1 expressing DRG neurons; experiment: Patch clamp of sodium currents in DRG neurons after pretreatment with capsaicin + blocker; type: cell-based, mouse; conditions: 100 micromolar with 300 nM capsaicin for 30 minutes, then washed off
Method: Charged sodium channel blockers were tested for intracellular block of voltage-gated sodium currents after entry through activated TRPV1 channels in dissociated mouse dorsal root ganglia (DRG) neurons in vitro. DRG neurons from 8-week-old C57/B16 mice were removed and placed in DMEM containing 1% penicillin-streptomycin (Sigma), then treated for 90 minutes with 5 mg/mL collagenase, 1 mg/mL Dispase II (Roche). Cells were triturated in the presence of DNase I […] (50 U), centrifuged through 10% BSA (Sigma), resuspended in 1 mL of Neurobasal medium (Sigma)+1X B27 supplement (Thermo Fisher) and 1% penicillin-streptomycin, and plated onto 35-mm tissue culture dishes (Becton Dickinson) coated with 20 μg/mL laminin, at 8,000-9,000 cells per dish. Cultures were incubated at 37° C. under 5% CO2. Recordings were made at room temperature within 24 hours of plating. The DRG neurons were treated with 300 nM capsaicin alone or 300 nM capsaicin+100 μM charged sodium channel blocker in external solution for 30 minutes, after which the blocker was washed off with fresh external solution. Whole-cell voltage-clamp recordings of sodium currents were performed in small diameter DRG neurons and then the expression of TRPV1 measured by perfusion of 1 μM capsaicin. […]

[2] = system: citric acid induced cough; experiment: Citric acid induced cough in ovalbumin sensitized guinea pigs, inhaled treatment; type: in vivo, guinea pig; conditions: for inhibition of cough: inhaled one hour before 400 mM citric acid challenge, versus vehicle group; for Cough Count: total cough count of each individual animal, inhaled, one hour before citric acid
Method: Dunkin Hartley Guinea pigs were used in this study (male and female). On Day 0 all animals were sensitized with an intraperitoneal and subcutaneous injection of 50 mg chicken egg albumin (ovalbumin). Animals were administered 1 mL of a 50 mg/mL ovalbumin in 0.9% w/v saline solution via the intraperitoneal route and 0.5 mL of the same solution into 2 separate subcutaneous sites (1 mL in total divided between the left and right flank). All animals were administered a single intraperitoneal dose of pyrilamine (15 mg/kg) at a dose volume of 1 mL/kg approximately 30 minutes prior to ovalbumin challenge on Day 14 to inhibit histamine-induced bronchospasm. On Day 14, animals were challenged with aerosolised ovalbumin in 0.9% w/v saline (3 mg/mL) for 15 min.
Animals were placed in groups in an acrylic box. Then 8 mL of ovalbumin in saline was placed in each of two jet nebulisers (Sidestream®). Compressed air was passed through each nebuliser at approximately 6 L/min and the output of the nebulisers passed into the box containing the animals. On Day 15, approximately 24 hours after the inflammatory challenge with ovalbumin, animals were dosed with either vehicle, compound 1, or compound 2 by inhalation. One hour following the end of vehicle, compound 1, or compound 2 administration on Day 15, animals were placed into a whole body plethysmograph connected to a Buxco Finepointe system. All animals were then exposed to nebulized 400 mM citric acid for 7 minutes via an Aeroneb® nebuliser.
Cough counts and respiratory parameters (respiratory rate, tidal volume, minute volume and Penh) were recorded throughout the exposure period and for 10 minutes following the end of nebulization period.

Nav1.5 sodium channels = molecular target: T1, Nav1.5 sodium channels (Homo sapiens, UniProt Q14524); experiment: Thallium flux assay, extracellular block of sodium channel in HEK293 cells; type: cell-based; conditions: HEK cells
T1 construct: expressed in transfected cells
T1 sequence (Q14524 whole entry): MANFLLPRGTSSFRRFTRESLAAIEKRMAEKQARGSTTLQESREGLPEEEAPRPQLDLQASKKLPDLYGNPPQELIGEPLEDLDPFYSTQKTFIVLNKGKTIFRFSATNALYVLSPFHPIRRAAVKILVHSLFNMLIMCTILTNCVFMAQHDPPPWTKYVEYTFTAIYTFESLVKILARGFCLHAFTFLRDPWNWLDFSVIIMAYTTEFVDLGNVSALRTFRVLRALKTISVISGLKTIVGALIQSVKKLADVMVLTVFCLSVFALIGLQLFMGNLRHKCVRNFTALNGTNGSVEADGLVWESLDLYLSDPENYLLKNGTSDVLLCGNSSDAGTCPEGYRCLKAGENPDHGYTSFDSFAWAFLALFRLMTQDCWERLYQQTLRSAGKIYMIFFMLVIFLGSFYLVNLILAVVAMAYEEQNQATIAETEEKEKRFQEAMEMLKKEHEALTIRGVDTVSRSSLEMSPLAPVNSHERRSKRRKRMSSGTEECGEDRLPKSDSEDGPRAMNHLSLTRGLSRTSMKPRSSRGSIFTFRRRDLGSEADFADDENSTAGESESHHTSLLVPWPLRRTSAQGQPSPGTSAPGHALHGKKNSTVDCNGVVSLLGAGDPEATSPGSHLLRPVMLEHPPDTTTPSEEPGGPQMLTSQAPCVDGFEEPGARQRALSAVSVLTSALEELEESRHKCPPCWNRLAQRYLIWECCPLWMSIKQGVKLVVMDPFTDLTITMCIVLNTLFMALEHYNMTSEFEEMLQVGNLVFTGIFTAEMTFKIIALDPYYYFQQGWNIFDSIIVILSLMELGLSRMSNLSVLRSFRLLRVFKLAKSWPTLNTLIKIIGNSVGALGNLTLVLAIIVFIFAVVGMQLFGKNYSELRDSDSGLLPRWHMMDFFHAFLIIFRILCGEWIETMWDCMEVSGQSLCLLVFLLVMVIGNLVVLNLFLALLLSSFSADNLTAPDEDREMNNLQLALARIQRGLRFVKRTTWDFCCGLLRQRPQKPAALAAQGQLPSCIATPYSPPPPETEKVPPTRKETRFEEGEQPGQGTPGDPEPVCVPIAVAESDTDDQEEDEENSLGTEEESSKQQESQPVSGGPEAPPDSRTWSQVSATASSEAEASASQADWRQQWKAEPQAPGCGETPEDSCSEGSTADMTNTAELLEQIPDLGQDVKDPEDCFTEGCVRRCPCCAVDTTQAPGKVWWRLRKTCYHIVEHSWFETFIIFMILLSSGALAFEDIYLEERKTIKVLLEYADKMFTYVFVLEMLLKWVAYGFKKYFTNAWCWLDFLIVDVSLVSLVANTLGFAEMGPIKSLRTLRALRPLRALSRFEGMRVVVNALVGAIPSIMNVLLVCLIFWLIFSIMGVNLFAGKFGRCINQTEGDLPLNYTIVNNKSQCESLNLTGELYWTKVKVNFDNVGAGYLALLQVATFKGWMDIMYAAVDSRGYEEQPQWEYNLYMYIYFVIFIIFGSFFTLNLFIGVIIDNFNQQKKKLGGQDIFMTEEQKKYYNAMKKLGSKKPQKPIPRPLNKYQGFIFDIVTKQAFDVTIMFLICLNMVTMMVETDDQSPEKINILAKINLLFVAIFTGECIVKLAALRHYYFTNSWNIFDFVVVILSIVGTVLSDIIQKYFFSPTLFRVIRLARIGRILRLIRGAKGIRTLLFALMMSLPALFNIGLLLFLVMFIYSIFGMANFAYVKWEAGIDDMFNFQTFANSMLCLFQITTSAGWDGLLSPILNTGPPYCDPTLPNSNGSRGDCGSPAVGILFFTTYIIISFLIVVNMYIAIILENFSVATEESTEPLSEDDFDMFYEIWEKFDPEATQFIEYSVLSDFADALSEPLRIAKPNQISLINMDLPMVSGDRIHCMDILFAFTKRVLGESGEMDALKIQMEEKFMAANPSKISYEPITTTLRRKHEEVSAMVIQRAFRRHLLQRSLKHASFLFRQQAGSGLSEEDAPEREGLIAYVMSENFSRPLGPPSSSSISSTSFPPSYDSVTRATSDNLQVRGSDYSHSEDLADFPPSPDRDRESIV
Method: (§1) Charged sodium channel blockers were tested for extracellular block of voltage-gated sodium channels in a thallium flux assay. Briefly, human embryonic kidney (HEK293) cells stably expressing either the Nav1.5 or Nav1.7 sodium channels were plated in 384 well plates. After overnight culture at 37° C., the cell culture medium was replaced the thallium-sensitive FluxOR dye (FluxOR assay kit, Thermo Fisher). Following a 60 minute incubation at room temperature, the dye-loading solution was replaced with assay buffer and the plates were loaded into a FDSS 7000EX multi-well plate reader (Hamamatsu). Dye fluorescence was measured using Fluo-4 filters (excitation 470 nm, emission 540 nm) at 1 Hz. Baseline fluorescence was measured for 30 s, followed by the addition of 15 μL/well of charged sodium channel blocker compounds. 10 minutes after compound addition, the cells were stimulated with a Tl^+ stimulus buffer and fluorescence measured. Tetraethylammonium (TEA) was used to block Kv channels and veratridine to block Nav channel inactivation. The fluorescence data was normalized with respect to no veratridine stimulus buffer control in order to isolate and measure the Nav channel component of the thallium flux.

Nav1.7 sodium channels = molecular target: T2, Nav1.7 sodium channels (Homo sapiens, UniProt Q15858); experiment: as above; type: cell-based
T2 construct: expressed in transfected cells
T2 sequence (Q15858 whole entry): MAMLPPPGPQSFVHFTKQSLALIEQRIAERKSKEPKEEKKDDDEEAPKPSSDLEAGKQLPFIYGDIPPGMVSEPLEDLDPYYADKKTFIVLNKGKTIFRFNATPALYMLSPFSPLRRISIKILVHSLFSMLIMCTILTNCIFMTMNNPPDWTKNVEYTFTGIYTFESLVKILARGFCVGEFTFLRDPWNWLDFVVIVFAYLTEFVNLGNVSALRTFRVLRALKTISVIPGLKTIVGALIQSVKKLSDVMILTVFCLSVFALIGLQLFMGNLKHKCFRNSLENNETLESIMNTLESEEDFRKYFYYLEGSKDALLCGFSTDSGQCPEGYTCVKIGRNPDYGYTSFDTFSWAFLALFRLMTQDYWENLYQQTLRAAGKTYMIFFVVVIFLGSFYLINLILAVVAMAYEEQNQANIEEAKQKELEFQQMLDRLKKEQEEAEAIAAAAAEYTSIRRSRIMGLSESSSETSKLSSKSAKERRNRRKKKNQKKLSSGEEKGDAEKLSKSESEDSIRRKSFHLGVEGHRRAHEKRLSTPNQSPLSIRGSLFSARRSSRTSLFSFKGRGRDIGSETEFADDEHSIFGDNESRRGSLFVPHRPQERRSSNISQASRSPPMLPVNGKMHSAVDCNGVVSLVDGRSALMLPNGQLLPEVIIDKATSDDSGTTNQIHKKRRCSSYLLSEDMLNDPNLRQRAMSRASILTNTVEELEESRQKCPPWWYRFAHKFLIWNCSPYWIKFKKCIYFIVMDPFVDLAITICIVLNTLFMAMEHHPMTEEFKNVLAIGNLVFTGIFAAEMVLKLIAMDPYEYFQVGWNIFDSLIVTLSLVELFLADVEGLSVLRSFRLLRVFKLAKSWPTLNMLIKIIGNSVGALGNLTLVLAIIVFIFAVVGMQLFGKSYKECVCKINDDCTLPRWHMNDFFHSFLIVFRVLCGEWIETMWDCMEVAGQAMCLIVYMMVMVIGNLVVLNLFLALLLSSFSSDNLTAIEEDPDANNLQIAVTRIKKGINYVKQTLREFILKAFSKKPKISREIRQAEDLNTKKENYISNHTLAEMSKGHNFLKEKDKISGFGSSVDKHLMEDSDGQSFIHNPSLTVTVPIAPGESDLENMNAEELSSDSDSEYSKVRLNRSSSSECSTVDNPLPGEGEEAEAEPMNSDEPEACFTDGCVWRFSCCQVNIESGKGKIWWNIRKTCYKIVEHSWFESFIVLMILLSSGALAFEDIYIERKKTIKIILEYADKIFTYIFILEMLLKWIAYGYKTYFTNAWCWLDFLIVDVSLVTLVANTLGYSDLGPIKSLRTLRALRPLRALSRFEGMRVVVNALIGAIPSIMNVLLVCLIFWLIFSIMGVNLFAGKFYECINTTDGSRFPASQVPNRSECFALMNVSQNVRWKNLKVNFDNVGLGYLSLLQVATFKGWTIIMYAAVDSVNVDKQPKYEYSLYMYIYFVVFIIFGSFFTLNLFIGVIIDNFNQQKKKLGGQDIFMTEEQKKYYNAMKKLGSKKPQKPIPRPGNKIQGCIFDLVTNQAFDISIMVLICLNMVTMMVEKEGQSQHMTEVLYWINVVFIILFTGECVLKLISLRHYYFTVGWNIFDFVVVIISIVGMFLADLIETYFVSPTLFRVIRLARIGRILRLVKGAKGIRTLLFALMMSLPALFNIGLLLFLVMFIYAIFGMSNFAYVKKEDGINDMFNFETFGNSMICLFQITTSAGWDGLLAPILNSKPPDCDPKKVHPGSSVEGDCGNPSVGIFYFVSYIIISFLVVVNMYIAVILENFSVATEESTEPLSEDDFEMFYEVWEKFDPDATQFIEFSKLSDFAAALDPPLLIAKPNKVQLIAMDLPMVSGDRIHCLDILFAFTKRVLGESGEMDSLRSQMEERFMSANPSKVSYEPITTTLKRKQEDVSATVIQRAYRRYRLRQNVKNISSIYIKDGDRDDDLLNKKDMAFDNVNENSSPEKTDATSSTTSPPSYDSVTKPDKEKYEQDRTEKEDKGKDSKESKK
Method: as §1

human Nav1.7 channels = molecular target: T3, human Nav1.7 channels (Homo sapiens, UniProt Q15858); experiment: Whole-cell patch clamp, use-dependent block of sodium current, compound dialyzed inside cells; type: cell-based; conditions: 10 micromolar intracellular; stimulation series 0.05 to 10 Hz; HEK293 hNav1.7
T3 construct: expressed in transfected cells
T3 sequence (Q15858 whole entry): as above
Method: Whole-cell recordings were made of currents carried by voltage-activated sodium channels in HEK293 cells stably expressing human Nav1.7 channels. Recordings were made using patch pipettes with resistances of 2-3.5 MO when filled with internal solution, consisting of 61 mM CsF, 61 mM CsCl, 9 mM NaCl, 1.8 mM MgCl2, 9 mM EGTA, 14 mM creatine phosphate (tris salt), 4 mM MgATP, and 0.3 mM GTP (tris salt), 9 mM HEPES, pH adjusted to 7.2 with CsOH. The shank of the electrode was wrapped with Parafilm in order to reduce capacitance and allow optimal series resistance compensation without oscillation. Seals were obtained and the whole-cell configuration established with cells in Tyrode's solution (155 mM NaCl, 3.5 mM KCl, 1.5 mM CaCl2), 1 mM MgCl2, 10 mM HEPES, 10 mM glucose, pH adjusted to 7.4 with NaOH) with 10 mM TEACl. To ensure complete dialysis with pipette solution containing the test compounds, recordings began after 5 to 10 minutes after establishment of the whole-cell configuration.
Currents were recorded at room temperature (21-23° C.) with an Axopatch 200 amplifier or […] amplifier and filtered at 5-10 kHz with a low-pass Bessel filter. The amplifier was tuned for partial compensation of series resistance (typically 70-80% of a total series resistance of 4-10 MO). Currents were digitized using a Digidata 1322A data acquisition interface controlled by pClamp9 or pClamp10 software (Axon Instruments) and analyzed using programs written in Igor Pro 4.0 (Wavemetrics, Lake Oswego, Oreg.). Currents were corrected for linear capacitative and leak currents determined using 5 mV hyperpolarizations delivered from the resting potential (usually −80 or −100 mV) and then appropriately scaled and subtracted.
Sodium currents were evoked by 30-msec depolarizations from −100 mV to −20 mV. To assay use-dependent block, pulses were delivered at series of increasing rates: 0.05 Hz for 1-min, 0.33 Hz for 1-min, 1 Hz for 1-min, 3 Hz for 1-min, 5 Hz for 30 seconds, 10 Hz for 30 seconds, with 1 minute rest between each series of pulses. […]

| Structure (SMILES) | sodium currents in DRG neurons versus capsaicin alone [1] | inhibition of cough [2] | Cough Count [2] | extracellular block of Nav1.5 (Nav1.5 sodium channels; doses of up to 1 mM, applied extracellularly) | extracellular concentration at which dose dependent block of Nav1.5 starts (Nav1.5 sodium channels; thallium flux, FIG. 3) | Nav subtype selectivity (Nav1.7 sodium channels; Nav1.5 versus Nav1.7, thallium flux) | extracellular block of Nav1.7 (Nav1.7 sodium channels; doses of up to 1 mM, applied extracellularly, HEK cells) | extracellular concentration at which dose dependent block of Nav1.7 starts (Nav1.7 sodium channels; thallium flux, HEK cells, FIG. 4) | sodium current remaining after use-dependent block, % of the initial value (human Nav1.7 channels) |
| --- | --- | --- | --- | --- | --- | --- | --- | --- | --- |
| CCC[N+]1(C(CC)C(=O)Nc2c(C)cccc2C)CCCCC1 (centres unmarked) [Compound 1, 1-(1-(2,6-dimethylphenylamino)-1-oxobutan-2-yl)-1-propylpiperidinium chloride] | considerably smaller | 81% | 4 (2×) and 0 (7×) and 2 and 7 and 6 | did not exhibit significant extracellular block | ≥ 10 millimolar | did not display any Nav subtype selectivity | did not exhibit significant extracellular block | ≥ 10 millimolar | about 15% |
| CCCC(C(=O)Nc1c(C)cccc1C)[N+]1(CC)CCCCC1 (centres unmarked) [Compound 2, 1-(1-((2,6-dimethylphenyl)amino)-1-oxopentan-2-yl)-1-ethylpiperidin-1-ium] | – | 65% | 8 and 0 (5×) and 2 (2×) and 13 and 11 and 6 and 1 | – | – | – | – | – | about 14% |
| CC[N+](CC)(CC)CC(=O)Nc1c(C)cccc1C [QX-314, reference compound] | robust block | – | – | – | – | – | – | – | about 62% |
